This passage reports DC50 results from patent US20260355196A1, “INHIBITORS AND DEGRADERS OF PIP4K PROTEIN” (Larkspur Biosciences, Inc., priority 2023, published 2026).

Each structure is given as a SMILES string. Some results are limits rather than exact numbers.

This experiment has as its target T1, PIP4K2C (Homo sapiens, UniProt Q8TBX8).
T1 sequence (Q8TBX8 1-421): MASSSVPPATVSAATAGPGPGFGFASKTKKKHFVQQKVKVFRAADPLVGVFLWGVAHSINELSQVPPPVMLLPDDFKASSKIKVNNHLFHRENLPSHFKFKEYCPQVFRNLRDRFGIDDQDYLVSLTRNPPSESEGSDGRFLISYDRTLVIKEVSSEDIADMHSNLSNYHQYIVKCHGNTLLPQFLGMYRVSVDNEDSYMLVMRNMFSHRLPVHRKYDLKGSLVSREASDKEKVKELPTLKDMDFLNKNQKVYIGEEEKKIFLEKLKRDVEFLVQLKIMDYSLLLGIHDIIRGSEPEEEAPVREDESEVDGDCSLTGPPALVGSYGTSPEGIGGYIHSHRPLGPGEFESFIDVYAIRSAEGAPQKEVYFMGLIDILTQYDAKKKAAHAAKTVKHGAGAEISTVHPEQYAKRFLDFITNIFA
Nature of the experiment: HiBiT PIP4K2C degradation assay in MOLT-4 cells (endogenous PIP4K2C C-terminally tagged with HiBiT). In kind it is cell-based. Particulars: 24 hours incubation, MOLT-4, top concentration 10 micromolar; read-out: HiBIT-degradation MOLT4 PIP4k2C 24 hours DC50. Also on record: untagged in primary human PBMCs and monocyte-derived dendritic cells. From the text:
Example B-2: HiBiT PIP4K2C degradation assay
Materials: MOLT-4, a human T lymphoblast cell line (see https://www.atcc.org/products/crl-1582, herein incorporated by reference in its entirety), was genetically engineered using CRISPR-Cas9 by Synthego Corporation (Redwood City, CA) to C-terminally tag endogenous PIP4K2C with HiBiT peptide. Following clonal selection, genotype was confirmed by Sanger sequencing. MO LT-4 were maintained using RPMI-1640 medium from Gibco (Grand Island, NY, catalog number 11875-085) supplemented with 10% fetal bovine serum (FBS) from VWR (Philadelphia, PA, catalog number 97068-085). For HiBiT assays the cells were resuspended in RPMI-1640 medium without phenol read from Gibco (Grand Island, NY, catalog number 11835-030) supplemented with 10% FBS. Nano-Glo® HiBiT Lytic Assay System was purchased from Promega (Madison, WI, Catalog number N3030). Cell culture flasks and 384-well microplates were purchased from Corning (Glendale, AZ).
To study PIP4K2C degradation, 384-well plates were plated with a 10-point dose response curve, 3-fold dilution, in duplicate with a top starting concentration of 10 micromolar. Subsequently 22,500 cells were added to each well and incubated at 37 C in 5% C02 for 24 hours or 6 hours. At the end of the incubation time, cells were treated with the Nano-Glo® HiBiT Lytic Detection System following the manufacturer's instructions. Luminescence was measured with a PHERAstar FSX plate reader (BMG Labtech, Cary, NC). The Levenberg-Marquardt algorithm was used to fit a Hill equation to dose-response data to calculate DC50 values (see Table 6).
In general terms: HiBiT is a short tag that completes a luciferase, so light tracks the accessible tagged protein.
As to `O=C1CCC(Nc2ccc(C3CCN(CC4CCN(C(=O)[C@H]5CCC[C@@H](Nc6ncc(Cl)c(-c7cccc(-c8ccccc8)c7)n6)C5)CC4)CC3)cc2)C(=O)N1` (relative stereo) [Compound 65, cis-3-((4-(1-((1-(3-((4-([1,1′-biphenyl]-3-yl)-5-chloropyrimidin-2-yl)amino)cyclohexane-1-carbonyl)piperidin-4-yl)methyl)piperidin-4-yl)phenyl)amino)piperidine-2,6-dione], the DC50 (as a rule, the concentration at which degradation of the target reaches its halfway point) was less than 500 nM. For `O=C1CCC(N2Cc3cc(OC4CCN(CC5CCN(C(=O)[C@H]6CCC[C@@H](Nc7ncc(Cl)c(-c8cccc(-c9ccccc9)c8)n7)C6)CC5)CC4)ccc3C2=O)C(=O)N1` (relative stereo) [Compound 76, cis-3-(5-((1-((1-(3-((4-([1,1′-biphenyl]-3-yl)-5-chloropyrimidin-2-yl)amino)cyclohexane-1-carbonyl)piperidin-4-yl)methyl)piperidin-4-yl)oxy)-1-oxoisoindolin-2-yl)piperidine-2,6-dione], the DC50 was less than 500 nM. On to `O=C1CCC(N2Cc3cc(OC4CCN(CCC5CCN(C(=O)[C@H]6CCC[C@@H](Nc7ncc(Cl)c(-c8cccc(-c9ccccc9)c8)n7)C6)CC5)CC4)ccc3C2=O)C(=O)N1` (relative stereo) [Compound 79, cis-3-(5-((1-(2-(1-(3-((4-([1,1′-biphenyl]-3-yl)-5-chloropyrimidin-2-yl)amino)cyclohexane-1-carbonyl)piperidin-4-yl)ethyl)piperidin-4-yl)oxy)-1-oxoisoindolin-2-yl)piperidine-2,6-dione], for which the DC50 is less than 500 nM. In the case of `O=C1CCC(N2Cc3cc(OC4CCN(CCN5CCN(C(=O)[C@H]6CCC[C@@H](Nc7ncc(Cl)c(-c8cccc(-c9ccccc9)c8)n7)C6)CC5)CC4)ccc3C2=O)C(=O)N1` (relative stereo) [Compound 80, cis-3-(5-((1-(2-(4-(3-((4-([1,1′-biphenyl]-3-yl)-5-chloropyrimidin-2-yl)amino)cyclohexane-1-carbonyl)piperazin-1-yl)ethyl)piperidin-4-yl)oxy)-1-oxoisoindolin-2-yl)piperidine-2,6-dione] it was less than 500 nM; in that of `O=C1CCC(N2Cc3cc(OC4CCN(C(=O)CC5CCN(C(=O)[C@H]6CCC[C@@H](Nc7ncc(Cl)c(-c8cccc(-c9ccccc9)c8)n7)C6)CC5)CC4)ccc3C2=O)C(=O)N1` (relative stereo) [Compound 81, cis-3-(5-((1-(2-(1-(3-((4-([1,1′-biphenyl]-3-yl)-5-chloropyrimidin-2-yl)amino)cyclohexane-1-carbonyl)piperidin-4-yl)acetyl)piperidin-4-yl)oxy)-1-oxoisoindolin-2-yl)piperidine-2,6-dione], less than 500 nM. Next, `O=C1CCC(N2Cc3cc(OC4CCN(C(=O)CN5CCN(C(=O)[C@H]6CCC[C@@H](Nc7ncc(Cl)c(-c8cccc(-c9ccccc9)c8)n7)C6)CC5)CC4)ccc3C2=O)C(=O)N1` (relative stereo) [Compound 82, cis-3-(5-((1-(2-(4-(3-((4-([1,1′-biphenyl]-3-yl)-5-chloropyrimidin-2-yl)amino)cyclohexane-1-carbonyl)piperazin-1-yl)acetyl)piperidin-4-yl)oxy)-1-oxoisoindolin-2-yl)piperidine-2,6-dione]: less than 500 nM; `Cn1c(=O)n(C2CCC(=O)NC2=O)c2ccc(C3CCN(CCC4CCN(C(=O)[C@H]5CCC[C@@H](Nc6ncc(Cl)c(-c7cccc(-c8ccc(F)cc8)c7)n6)C5)CC4)CC3)cc21` (relative stereo) [Compound 279, cis-3-(5-(1-(2-(1-(3-((5-chloro-4-(4′-fluoro-[1,1′-biphenyl]-3-yl)pyrimidin-2-yl)amino)cyclohexane-1-carbonyl)piperidin-4-yl)ethyl)piperidin-4-yl)-3-methyl-2-oxo-2,3-dihydro-1H-benzo[d]imidazol-1-yl)piperidine-2,6-dione]: less than 500 nM; `O=C1CCC(Nc2ccc(C3CCN(CC(=O)N4CCC5(C4)CN(C(=O)[C@H]4CCC[C@@H](Nc6ncc(Cl)c(-c7cccc(-c8ccc(F)cc8)c7)n6)C4)C5)CC3)c(F)c2)C(=O)N1` (relative stereo) [Compound 284, cis-3-((4-(1-(2-(2-(3-((5-chloro-4-(4′-fluoro-[1,1′-biphenyl]-3-yl)pyrimidin-2-yl)amino)cyclohexane-1-carbonyl)-2,6-diazaspiro[3.4]octan-6-yl)-2-oxoethyl)piperidin-4-yl)-3-fluorophenyl)amino)piperidine-2,6-dione]: less than 500 nM.

Regarding `Cn1c(=O)n(C2CCC(=O)NC2=O)c2ccc(C3CCN(CCC4CCN(C(=O)[C@H]5CCC[C@@H](Nc6ncc(F)c(-c7cccc(-n8ccccc8=O)c7)n6)C5)CC4)CC3)cc21` (relative stereo) [Compound 291, cis-3-(5-(1-(2-(1-(3-((5-fluoro-4-(3-(2-oxopyridin-1(2H)-yl)phenyl)pyrimidin-2-yl)amino)cyclohexane-1-carbonyl)piperidin-4-yl)ethyl)piperidin-4-yl)-3-methyl-2-oxo-2,3-dihydro-1H-benzo[d]imidazol-1-yl)piperidine-2,6-dione], the DC50 was less than 500 nM.

With `O=C1CCC(Oc2ccc(N3CCC(O)(CC(=O)N4CCN(C(=O)[C@H]5CCC[C@@H](Nc6ncc(Cl)c(-c7cccc(-c8ccc(F)cc8)c7)n6)C5)CC4)CC3)c(F)c2)C(=O)N1` (relative stereo) [Compound 292, cis-3-(4-(4-(2-(4-(3-((5-chloro-4-(4′-fluoro-[1,1′-biphenyl]-3-yl)pyrimidin-2-yl)amino)cyclohexane-1-carbonyl)piperazin-1-yl)-2-oxoethyl)-4-hydroxypiperidin-1-yl)-3-fluorophenoxy)piperidine-2,6-dione], the DC50 is more than 5000 nM. In the case of `O=C1CCC(Nc2ccc(N3CCC(N4CCC(CNC(=O)[C@H]5CCC[C@@H](Nc6ncc(F)c(-c7cccc(-n8ccccc8=O)c7)n6)C5)CC4)CC3)cc2)C(=O)N1` (relative stereo) [Compound 297, cis-N-((1′-(4-((2,6-dioxopiperidin-3-yl)amino)phenyl)-[1,4′-bipiperidin]-4-yl)methyl)-3-((5-fluoro-4-(3-(2-oxopyridin-1(2H)-yl)phenyl)pyrimidin-2-yl)amino)cyclohexane-1-carboxamide] it was less than 500 nM. In the case of `Cn1nc(C2CCC(=O)NC2=O)c2ccc(C3CCN(CCC4CCN(C(=O)[C@H]5CCC[C@@H](Nc6ncc(F)c(-c7cccc(-n8ccccc8=O)c7)n6)C5)CC4)CC3)cc21` (relative stereo) [Compound 298, 3-(6-(1-(2-(1-(cis-3-((5-fluoro-4-(3-(2-oxopyridin-1(2H)-yl)phenyl)pyrimidin-2-yl)amino)cyclohexane-1-carbonyl)piperidin-4-yl)ethyl)piperidin-4-yl)-1-methyl-1H-indazol-3-yl)piperidine-2,6-dione] it was less than 500 nM; in that of `O=C1CCC(n2c(=O)oc3cc(N4CCC(N5CCC(CNC(=O)[C@H]6CCC[C@@H](Nc7ncc(F)c(-c8cccc(-n9ccccc9=O)c8)n7)C6)CC5)CC4)ccc32)C(=O)N1` (relative stereo) [Compound 299, cis-N-((1′-(3-(2,6-dioxopiperidin-3-yl)-2-oxo-2,3-dihydrobenzo[d]oxazol-6-yl)-[1,4′-bipiperidin]-4-yl)methyl)-3-((5-fluoro-4-(3-(2-oxopyridin-1(2H)-yl)phenyl)pyrimidin-2-yl)amino)cyclohexane-1-carboxamide], less than 500 nM; in that of `O=C1CCC(n2c(=O)oc3cc(C4CCN(C[C@H]5CC[C@H](NC(=O)[C@H]6CCC[C@@H](Nc7ncc(F)c(-c8cccc(-n9ccccc9=O)c8)n7)C6)CC5)CC4)ccc32)C(=O)N1` (relative stereo) [Compound 306, cis-trans-N-(4-((4-(3-(2,6-dioxopiperidin-3-yl)-2-oxo-2,3-dihydrobenzo[d]oxazol-6-yl)piperidin-1-yl)methyl)cyclohexyl)-3-((5-fluoro-4-(3-(2-oxopyridin-1(2H)-yl)phenyl)pyrimidin-2-yl)amino)cyclohexane-1-carboxamide], less than 500 nM.

`Cn1nc(C2CCC(=O)NC2=O)c2ccc(C3CCN(C[C@H]4CC[C@H](NC(=O)[C@H]5CCC[C@@H](Nc6ncc(F)c(-c7cccc(-n8ccccc8=O)c7)n6)C5)CC4)CC3)cc21` (relative stereo) [Compound 307, cis-trans-N-(4-((4-(3-(2,6-dioxopiperidin-3-yl)-1-methyl-1H-indazol-6-yl)piperidin-1-yl)methyl)cyclohexyl)-3-((5-fluoro-4-(3-(2-oxopyridin-1(2H)-yl)phenyl)pyrimidin-2-yl)amino)cyclohexane-1-carboxamide]: the DC50 was 1000 to 5000 nM.
